The results in this text go back to PubChem BioAssay (NCI).

Test systems include HOP-92 NSCLC; SF-539 CNS; NCI/ADR-RES ovarian; OVCAR-4 ovarian; M14 melanoma; SK-MEL-28 melanoma; OVCAR-3 ovarian; HL-60(TB) leukemia; NCI-H226 lung; 786-0 renal.
What all share (assay): NCI anticancer screen, dose series, 48 h

Each structure is given as a SMILES string.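 These data come from cells grown in 96-well plates and exposed to compound for 48 hours at five concentrations. GI50 is the concentration that inhibits growth by half. TGI: concentration producing complete growth inhibition.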

Regarding `COc1cccc2c(Nc3ccc(C(=O)NCCN(C)C)cc3)cc(-c3ccccc3)nc12`, the GI50 is 832 nM with HOP-92 NSCLC; 19100 nM with SF-539 CNS; 18.3 µM with NCI/ADR-RES ovarian; 33000 nM with OVCAR-4 ovarian; 16.3 µM in the assay with M14 melanoma; 37100 nM with SK-MEL-28 melanoma. In addition, the GI50 in the assay with OVCAR-3 ovarian was 25.6 µM; in the assay with HL-60(TB) leukemia it was 14900 nM; with NCI-H226 lung it was 19300 nM; in the assay with 786-0 renal it was 2260 nM. Besides, the TGI was 8.86 µM in the assay on HOP-92 NSCLC; 37.1 µM with SF-539 CNS; 42.9 µM with NCI/ADR-RES ovarian; > 100 µM with OVCAR-4 ovarian; 30.5 µM in the assay on M14 melanoma; > 100 µM in the assay with SK-MEL-28 melanoma. The TGI turned out to be 54.1 µM in the assay with OVCAR-3 ovarian, 39.9 µM in the assay with HL-60(TB) leukemia, 40 µM with NCI-H226 lung and 14.2 µM with 786-0 renal.

Consider `O=C(CC(=O)c1ccccc1NC1=Cc2ccccc2C(=O)C1=O)C(=O)NC1=C(Cl)C(=O)c2ccccc2C1=O`, for which the TGI was determined as 17.9 µM in the assay on HOP-92 NSCLC; 9.11 µM in the assay on SF-539 CNS; 7 µM in the assay with NCI/ADR-RES ovarian; 15.1 µM with OVCAR-4 ovarian; 4.12 µM in the assay with M14 melanoma; 3.71 µM in the assay on SK-MEL-28 melanoma. For the same molecule, the TGI came out at 7.05 µM in the assay on OVCAR-3 ovarian, 3.42 µM in the assay on HL-60(TB) leukemia, 20.1 µM in the assay on NCI-H226 lung and 10.7 µM with 786-0 renal.

With `C[C@@]12CCC[C@@](C)(C(=O)O)C1CC[C@@]13CC(=O)[C@@](CO)(CCC12)C3` (some centres undefined), the GI50 is > 100000 nM with HOP-92 NSCLC; > 100000 nM in the assay with SF-539 CNS; > 100 µM in the assay on NCI/ADR-RES ovarian; > 100000 nM in the assay on OVCAR-4 ovarian; > 100 µM in the assay with M14 melanoma; > 100000 nM with SK-MEL-28 melanoma. Moreover, the GI50 in the assay with OVCAR-3 ovarian is > 100 µM; in the assay on HL-60(TB) leukemia, > 100000 nM; in the assay on NCI-H226 lung, > 100000 nM; in the assay with 786-0 renal, > 100000 nM. In addition, the TGI with HOP-92 NSCLC, in the assay on SF-539 CNS, in the assay with NCI/ADR-RES ovarian, in the assay on OVCAR-4 ovarian, in the assay on M14 melanoma and in the assay on SK-MEL-28 melanoma was > 100 µM in each case. Further, the TGI in the assay with OVCAR-3 ovarian, in the assay on HL-60(TB) leukemia, with NCI-H226 lung and with 786-0 renal was > 100 µM throughout.

For `NCC(=O)CCC(=O)O`, the GI50 in the assay with HOP-92 NSCLC was > 100000 nM; with SF-539 CNS it was > 100000 nM; with NCI/ADR-RES ovarian it was > 100 µM; in the assay with OVCAR-4 ovarian, > 100000 nM; in the assay on M14 melanoma, > 100 µM; with SK-MEL-28 melanoma it was > 100000 nM. In addition, the GI50 with OVCAR-3 ovarian is > 100 µM; in the assay with HL-60(TB) leukemia, > 100000 nM; in the assay on NCI-H226 lung, > 100000 nM; in the assay with 786-0 renal, > 100000 nM. For the same molecule, the TGI in the assay on HOP-92 NSCLC, with SF-539 CNS, in the assay with NCI/ADR-RES ovarian, with OVCAR-4 ovarian, in the assay with M14 melanoma and with SK-MEL-28 melanoma was > 100 µM throughout. Moreover, the TGI with OVCAR-3 ovarian, in the assay with HL-60(TB) leukemia, in the assay on NCI-H226 lung and in the assay with 786-0 renal was > 100 µM throughout.

Take `COc1cc2c3c(n(C)c(=O)c2cc1OC)-c1cc2c(cc1/C3=C\[C@@H](N)CCCCN)OCO2`: the GI50 with HOP-92 NSCLC is 1700 nM; in the assay on SF-539 CNS, 335 nM; with NCI/ADR-RES ovarian, 29.7 µM; with OVCAR-4 ovarian, 1260 nM; in the assay on M14 melanoma, 6.9 µM; with SK-MEL-28 melanoma it was 1390 nM. The GI50 in the assay on OVCAR-3 ovarian was 3.83 µM; in the assay on HL-60(TB) leukemia, 2150 nM; in the assay on NCI-H226 lung, 1480 nM; with 786-0 renal, 2060 nM. The TGI in the assay with HOP-92 NSCLC was 29.4 µM; with SF-539 CNS it was 12.5 µM; in the assay on NCI/ADR-RES ovarian, > 100 µM; in the assay on OVCAR-4 ovarian, 99 µM; in the assay on M14 melanoma, > 100 µM; in the assay with SK-MEL-28 melanoma, > 100 µM. In addition, the TGI is 58.9 µM with OVCAR-3 ovarian, 8.73 µM in the assay on HL-60(TB) leukemia, 18.4 µM in the assay with NCI-H226 lung and > 100 µM with 786-0 renal.

As to `COc1ccc(-c2c(C#N)c(N)nc3c2CCCc2ccc(F)cc2-3)cc1OC`, the GI50 with HOP-92 NSCLC was 4730 nM; with SF-539 CNS, < 10 nM; with NCI/ADR-RES ovarian it was 0.48 µM; in the assay with OVCAR-4 ovarian, 1280 nM; with M14 melanoma it was 0.0758 µM; with SK-MEL-28 melanoma, 1030 nM. Moreover, the GI50 in the assay with OVCAR-3 ovarian is < 0.01 µM; in the assay with HL-60(TB) leukemia, < 10 nM; in the assay with NCI-H226 lung it was < 10 nM; in the assay with 786-0 renal, 96.4 nM. The TGI with HOP-92 NSCLC is > 100 µM; in the assay on SF-539 CNS, 0.0213 µM; with NCI/ADR-RES ovarian, > 100 µM; in the assay on OVCAR-4 ovarian, > 29.9 µM; in the assay with M14 melanoma, 0.402 µM; with SK-MEL-28 melanoma it was > 38 µM. Also, the TGI is > 100 µM in the assay on HL-60(TB) leukemia, > 100 µM in the assay on NCI-H226 lung and 30.3 µM in the assay with 786-0 renal.

Consider `COC(=O)[C@H](Cc1ccccc1)NC(=O)[C@@H](OC)[C@@H]1Cc2cc3cc(OC4CC(OC5CC(O)C(O)C(C)O5)C(O)C(C)O4)c(C)c(O)c3c(O)c2C(=O)[C@H]1OC1CC(OC2CC(OC3CC(C)(O)C(O)C(C)O3)C(O)C(C)O2)C(O)C(C)O1` (some centres undefined), for which the GI50 with HOP-92 NSCLC was 4.51 nM; in the assay with SF-539 CNS, 8.8 nM; in the assay with NCI/ADR-RES ovarian it was 4.22 µM; in the assay with OVCAR-4 ovarian, 27.7 nM; in the assay with M14 melanoma it was 0.0267 µM; in the assay on SK-MEL-28 melanoma, 5.78 nM. Further, the GI50 is 0.0142 µM in the assay with OVCAR-3 ovarian, 33.6 nM with HL-60(TB) leukemia, 18 nM in the assay with NCI-H226 lung and 18.8 nM in the assay with 786-0 renal. The TGI was 0.202 µM in the assay with HOP-92 NSCLC; 0.065 µM in the assay on SF-539 CNS; > 14.3 µM with NCI/ADR-RES ovarian; > 14.3 µM in the assay on OVCAR-4 ovarian; 0.105 µM with M14 melanoma; 0.0368 µM in the assay with SK-MEL-28 melanoma. For the same molecule, the TGI in the assay with OVCAR-3 ovarian was 0.0793 µM; in the assay on HL-60(TB) leukemia, 0.649 µM; with NCI-H226 lung, 0.0741 µM; in the assay with 786-0 renal, > 14.3 µM.

Turning to `Oc1ccc(-c2nc3ccc4[nH]ncc4c3c3c2CCCC3)c2cccnc12`, the GI50 is 110 nM in the assay on HOP-92 NSCLC; 145 nM with SF-539 CNS; 0.167 µM with NCI/ADR-RES ovarian; 781 nM with OVCAR-4 ovarian; 0.163 µM in the assay with M14 melanoma; 498 nM with SK-MEL-28 melanoma. The GI50 in the assay with OVCAR-3 ovarian is 0.491 µM; in the assay with HL-60(TB) leukemia, 639 nM; in the assay with NCI-H226 lung, 1220 nM; with 786-0 renal, 435 nM. Moreover, the TGI with HOP-92 NSCLC worked out at 0.794 µM; in the assay with SF-539 CNS it was 1.87 µM; in the assay with NCI/ADR-RES ovarian, 4.61 µM; in the assay on OVCAR-4 ovarian it was 6.06 µM; in the assay on M14 melanoma, 2.21 µM; with SK-MEL-28 melanoma, 8.61 µM. Besides, the TGI with OVCAR-3 ovarian was determined as 7.3 µM; in the assay on HL-60(TB) leukemia, 3.14 µM; in the assay on NCI-H226 lung, 5.79 µM; in the assay on 786-0 renal, 3.95 µM.
